Experimental findings from patent US20260274819A1, “ULK1 INHIBITOR, PREPARATION METHOD THEREFOR AND USE THEREOF” (DOVETREE MEDICINES UNUS, INC., priority 2023, published 2026) are described below.

A value given as a limit tells only on which side of the number the result lay.

Assay [1] relates to HEK293 GFP-LC3 stably transfected cells. Briefly: Inhibition of autophagy level in HEK293 GFP-LC3 stably transfected cells (autophagic flux). The following applies: Homo sapiens, Torin1 100 nM, 24 h, GFP fluorescence. In kind it is cell-based. Here is the method:
The inhibitory effect of the compound of the present disclosure on intracellular autophagy was evaluated by testing the impact of the compound of the present disclosure on the fluorescence intensity of HEK293 GFP-LC3 stably transfected cells.
HEK293 GFP-LC3 stably transfected cells (HEK293, ATCC, CRL-1573) were cultured in a complete medium, namely, a DMEM medium (Gibco, 11965-092) containing 10% fetal bovine serum (Corning, 35-081-CV), 1% double antibody (Gibco, 15140-122) and 1 μg/mL of Puromycin (Invitrogen-A1113803).
Cell plating: HEK293 GFP-LC3 stably transfected cells at 80% growth confluence were digested, diluted with a medium free of Puromycin, and added to a 96-well cell culture plate (Geriner, 655090) at 12,000 cells per well, with a volume of 90 μL.
Compound incubation: 5 μL of Torin1 and 5 μL of a serially diluted compound were added to each well so that the highest concentration of the compound in the reaction system was 10 μM. 3-fold serial dilution with 8 concentrations was performed, and the final concentration of Torin1 was 100 nM. The DMSO content in the system was 0.1%. The positive control wells (PC) contain DMSO at a final concentration of 0.1%, and the negative control wells (NC) contain 100 nM of Torin1 with 0.1% of DMSO. The reaction plate was placed in an incubator at 37° C. in 5% CO2, and was incubated for 24 h.
Cell staining and fixation: The cell plate was taken out, and 10 μL of Hochest33342 nuclear staining reagent (Thermo, H1399) was added to each well, followed by incubation at 37° C. in 5% CO2 for 30 min. After the incubation was completed, the cell supernatant was discarded, and 100 μL of pre-cooled 4% paraformaldehyde was added to each well to fix the cells for 15 min. Then, the fixative was discarded, and 100 μL of PBS was added to each well. Images were captured for analysis using a high-content cell imaging analyzer (PE, Operetta CLS), and GFP fluorescence signals were collected for data processing.
The average GFP fluorescence signal intensity in the reaction wells was collected for the calculation of the inhibition ratio:
The dose-effect curve was fitted using the log(inhibitor) vs. response -Variable slope of Graphpad Prism8, thereby affording the IC50 value of each compound for inhibiting autophagy level in HEK293 GFP-LC3 stably transfected cells.

The subject of assay [2] is ATG13 phosphorylation level in MIA PaCa-2 cells. Briefly: Inhibition of ATG13 phosphorylation level in MIA PaCa-2 cells (pATG13 ELISA). In kind it is cell-based. The following applies: Homo sapiens, Torin1 100 nM, 24 h incubation, Phospho-Atg13 (ser355). Here is the method:
The inhibitory effect of the compound of the present disclosure on ULK1 was evaluated by testing the inhibitory effect of the compound of the present disclosure on ATG13 phosphorylation level in MIA PaCa-2 cells.
MIA PaCa-2 cells (ATCC, CRM-CRL-1420) were cultured in a complete medium, namely, a DMEM medium (Gibco, 11965-092) containing 10% fetal bovine serum (Corning, 35-081-CV), 2.5% horse serum (Gibco, 16050-122) and 1% double antibody (Gibco, 15140-122). The experiments were performed according to the requirements of the kit (Cell Signaling Technology, 17208C).
Cell plating: MIA PaCa-2 at 80% growth confluence were digested, diluted with the complete medium, and added to a 96-well cell culture plate (Costar, 3596) at 20,000 cells per well, with a volume of 90 μL.
Compound incubation: 5 μL of Torin1 and 5 μL of a serially diluted compound were added to each well so that the highest concentration of the compound in the reaction system was 10 μM. 5-fold serial dilution with 8 concentrations was performed, and the final concentration of Torin1 was 100 nM. The DMSO content in the system was 0.1%. The reaction plate was placed in an incubator at 37° C. in 5% CO2, and was incubated for 24 h. 10 μL of Torin1 was added to the negative control wells (NC) to a final concentration of 100 nM, with a DMSO content of 0.1%.
Reaction detection: After the incubation was completed, the cell plate was washed with a pre-cooled DPBS (Corning, 21-031-CVC) to wash away the compound and medium. 50 μL of pre-cooled cell lysis solution was added to each well, incubated on ice for 10 min. The cell plate was centrifuged, and the supernatant was transferred to an ELISA reaction plate. Simultaneously, 50 μL of Phospho-Atg13 (ser355) rabbit detection antibody was added, followed by incubation at room temperature under shaking for 60 min. After the incubation was completed, the reaction plate was washed with a washing solution for 4 times. 100 μL of TMB substrate was added for color development reaction, followed by incubation under shaded conditions with shaking for 15 min. Finally, 100 μL of stop solution was added to each well. The reaction was terminated by shaking for 10 s, and the absorbance value at 450 nm and 560 nm were collected within 10 min using Envision (Perkin Elmer, EnVision 2105).
The inhibition ratio was calculated by subtracting the absorbance value at […] from the absorbance value at 450 nm for each well. The inhibition ratio formula is as follows: inhibition ratio=(sample signal value−negative control signal value)/(positive control signal value -negative control signal value)×100%.
The dose-effect curve was fitted using the log (inhibitor) vs. response -Variable slope of Graphpad Prism8, thereby affording the IC50 value of each compound for inhibiting ATG13 phosphorylation level.
On the technique in general: ELISA stands for enzyme-linked immunosorbent assay.

For the next assay, the target named is T1, ULK1 (Homo sapiens, UniProt O75385).
T1 construct: purchased Promega V3521
T1 sequence (O75385 1-649 limits assumed): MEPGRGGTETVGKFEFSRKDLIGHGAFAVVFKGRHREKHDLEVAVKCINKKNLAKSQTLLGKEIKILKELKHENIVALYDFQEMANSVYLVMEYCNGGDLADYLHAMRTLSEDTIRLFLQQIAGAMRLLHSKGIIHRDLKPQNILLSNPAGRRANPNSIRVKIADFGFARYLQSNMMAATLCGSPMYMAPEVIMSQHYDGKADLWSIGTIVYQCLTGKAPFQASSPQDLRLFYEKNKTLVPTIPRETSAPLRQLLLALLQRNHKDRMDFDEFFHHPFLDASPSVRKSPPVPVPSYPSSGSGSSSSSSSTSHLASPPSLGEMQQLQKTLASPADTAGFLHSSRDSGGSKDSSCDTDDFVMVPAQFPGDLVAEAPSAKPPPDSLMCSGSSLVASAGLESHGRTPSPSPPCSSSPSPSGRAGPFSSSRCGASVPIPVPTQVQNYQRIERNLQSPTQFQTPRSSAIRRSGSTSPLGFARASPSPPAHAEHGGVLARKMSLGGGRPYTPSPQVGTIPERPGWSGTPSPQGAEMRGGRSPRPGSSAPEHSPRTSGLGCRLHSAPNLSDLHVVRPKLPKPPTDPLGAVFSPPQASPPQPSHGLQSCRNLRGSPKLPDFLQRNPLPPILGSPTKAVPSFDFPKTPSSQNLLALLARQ
Briefly: Inhibition of ULK1 protein activity (ADP-Glo method). In kind it is biochemical. The following applies: ULK1 enzyme, ATP and MBP substrate, 60 min room temperature. Here is the method: In this experiment, the inhibitory effect of a compound on the phosphorylation function of ULK1 was detected by ADP-Glo method. The inhibitory effect of the compound of the present disclosure on the ULK1 target was evaluated based on IC50.
Compound formulation: Using an ECHO (Beckman, ECHO650), the compound was serially diluted 3-fold in DMSO in a 384-well plate (PE, 6007290). A total of 10 concentration points were set, with the maximum concentration of the compound being 10 μM, and 50 nL per well. Positive control wells and negative control wells were added with 50 nL DMSO, respectively.
Reaction process: A 32 nM of ULK1 (Promega, V3521) solution was formulated, and 2.5 μL/well was transferred to the compound test wells and the negative control wells (NC). 2.5 μL/well of 1× Assay buffer was added to the positive control wells (PC). A mixed solution of 100 μM of ATP and 1.86 μM of MBP was formulated, and 2.5 μL/well was transferred to the reaction plate. After centrifugation, the reaction was initiated and incubated at room temperature for 60 min. After the reaction was completed, 5 μL/well of ADP-Glo Reagent (Promega, V9102) was added to the reaction plate. After centrifugation, the reaction was incubated at room temperature for 40 minutes. Finally, 10 μL/well of Kinase Detection Buffer was added, followed by centrifugation and incubation at room temperature for 30 min. The chemiluminescence value was read using Envision (PE, Envision2105).
Assay buffer: a reaction buffer; and Kinase Detection buffer: a detection buffer, both were taken from the ADP-Glodetection kit, purchased from Promega, model V9102. 3. Data analysis
The inhibition ratio of a compound on ULK1 activity was calculated using the following formula:
Inhibition ratio=(sample signal value−negative control signal value)/(positive control signal value−negative control signal value)×100%. The dose-effect curve was fitted using the log(inhibitor) vs. response -Variable slope of the analysis software GraphPad Prism 8, thereby affording the IC50 value of each compound for enzyme activity.

As to `CN1CCN(c2ccc(Nc3ncc(C(F)(F)F)c(N4CCC5(CCN(C)CC5)CC4)n3)c(C3CC3)c2)CC1` [Example 51], the IC50 (commonly the concentration at which inhibition is half-maximal) in assay [1] was 0.1 to 1 µM; in assay [2] it was over 1 µM; against ULK1 it was under 0.1 µM.
In the case of `CN1CCN(c2ccc(Nc3ncc(C(F)(F)F)c(OCCCn4cccn4)n3)c(C3CC3)c2)CC1` [Example 29], the IC50 is 0.1 to 1 µM in assay [1], 0.1 to 1 µM in assay [2] and under 0.1 µM against ULK1.
On to `CN1CCN(c2ccc(Nc3ncc(C(F)(F)F)c(N4CCC(n5cccn5)CC4)n3)c(C3CC3)c2)CC1` [Example 14], for which the results for the IC50 (in assay [1]; in assay [2]; against ULK1) were over 1 µM, under 0.1 µM and under 0.1 µM, respectively.
`CN1CCc2cc(Nc3ncc(C(F)(F)F)c(N4CCN(C)C(=O)C4)n3)ccc2C1` [Example 15]: the IC50 in assay [1] was 0.1 to 1 µM; in assay [2], 0.1 to 1 µM; against ULK1, under 0.1 µM.
Turning to `CN1CCN(c2ccc(Nc3ncc(C(F)(F)F)c(N4CCN(C)C(=O)C4)n3)c(C3CC3)c2)CC1` [Example 5], the IC50 in assay [1] was over 1 µM; in assay [2], over 1 µM; at ULK1, under 0.1 µM.
For `CN1CCN(c2ccc(Nc3ncc(C(F)(F)F)c(NCCCn4cccn4)n3)c(C3CC3)c2)CC1` [Example 30], the IC50 was over 1 µM in assay [1], over 1 µM in assay [2] and under 0.1 µM on ULK1.
Take `CN1CCN(c2ccc(Nc3ncc(C(F)(F)F)c(OCCCN4CCCCC4=O)n3)c(C3CC3)c2)CC1` [Example 1]: the IC50 in assay [1] is 0.1 to 1 µM; in assay [2] it was 0.1 to 1 µM; against ULK1, under 0.1 µM.
For the compound `CN1CCN(c2ccc(Nc3ncc(C(F)(F)F)c(N4CCC5(CCN(C)C5)CC4)n3)c(C3CC3)c2)CC1` [Example 19], the IC50 in assay [1] is 0.1 to 1 µM; in assay [2], over 1 µM; against ULK1 it was under 0.1 µM.
On the same counts, the results for `CN1CCN(c2ccc(Nc3ncc(C(F)(F)F)c(N4CCC5(CCN(C)C5)C4)n3)c(C3CC3)c2)CC1` (stereo not drawn) [Example 26] are over 1 µM, 0.1 to 1 µM and under 0.1 µM.
On to `CN1CCN(c2ccc(Nc3ncc(C(F)(F)F)c(NC4CCN(C(=O)C5CCC5)CC4)n3)c(C3CC3)c2)CC1` [Example 20], for which the values for the IC50 (in assay [1]; in assay [2]; against ULK1) were over 1 µM, over 1 µM and under 0.1 µM, respectively.
Take `CN1Cc2cc(Nc3ncc(C(F)(F)F)c(OCCCN4CCCCC4=O)n3)ccc2C2(CC2)C1` [Example 49]: the IC50 (in assay [1]; in assay [2]; against ULK1) was under 0.1 µM throughout.
On to `CN1CCN(c2ccc(Nc3ncc(C(F)(F)F)c(N4CCC5(CCN(C)CC5)C4)n3)c(C3CC3)c2)CC1` [Example 53], for which the IC50 is over 1 µM in assay [1], 0.1 to 1 µM in assay [2] and under 0.1 µM at ULK1.
In the case of `CN1CCN(c2ccc(Nc3ncc(C(F)(F)F)c(N4CC5(CN(C)C5)C4)n3)c(C3CC3)c2)CC1` [Example 24], the IC50 in assay [1] is 0.1 to 1 µM; in assay [2], 0.1 to 1 µM; against ULK1, under 0.1 µM.
For the compound `CN1CCN(c2ccc(Nc3ncc(C(F)(F)F)c(N[C@H]4CC[C@@H](n5cccn5)CC4)n3)c(C3CC3)c2)CC1` [Example 32], the IC50 was over 1 µM in assay [1], 0.1 to 1 µM in assay [2] and under 0.1 µM against ULK1.
